# Assay results reported in patent US12221422B2, “Compounds and their use for the treatment of alpha1-antitrypsin deficiency” (CENTESSA PHARMACEUTICALS (UK) LIMITED, priority 2018, dated 2025).
# Tests used:
# [1] = biological target: T1, human Siiyama A1AT (Homo sapiens, UniProt P01009, S77F); assay: A1AT cell secretion assay using HEK-Siiyama cells (ELISA); type: cell-based; settings: 1 or 10 μM, 48 h
# T1 construct: expressed in transfected cells; host or cells: HEK-Siiyama (HEK-EBNA cells containing the Siiyama A1AT plasmid)
# T1 sequence (P01009 25-418 S77F): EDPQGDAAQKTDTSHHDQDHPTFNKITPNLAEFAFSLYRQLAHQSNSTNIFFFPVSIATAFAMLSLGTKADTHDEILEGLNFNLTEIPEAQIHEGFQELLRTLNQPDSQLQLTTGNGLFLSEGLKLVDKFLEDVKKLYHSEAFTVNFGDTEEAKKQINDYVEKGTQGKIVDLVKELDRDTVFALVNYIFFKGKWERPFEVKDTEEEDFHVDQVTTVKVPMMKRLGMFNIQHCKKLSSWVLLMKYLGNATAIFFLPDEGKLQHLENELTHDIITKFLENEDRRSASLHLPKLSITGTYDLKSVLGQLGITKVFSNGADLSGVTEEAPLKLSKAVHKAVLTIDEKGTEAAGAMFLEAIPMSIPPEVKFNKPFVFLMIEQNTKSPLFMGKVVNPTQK
# Description: HEK-Siiyama cells, a human embryonic kidney cell line stably transfected with the human Siiyama A1AT gene, were plated into 96 well plates (3.0×10^5 cells/ml with 200 μl of media/well) overnight at 37° C. in a humidified atmosphere containing 5% CO2. Following incubation cells were washed with 200 μl serum-free media three times and media was replaced with serum-free media containing either vehicle, 10 μM suberanilohydroxamic acid (SAHA) or a compound of the invention (at 1 or 10 μM) in replicates of eight for 48 h in a 37° C. incubator in a final volume of 200 μl. […]
# (§1) Briefly, a 96 well plate was coated with human A1AT capture antibody overnight at room temperature (1:180 dilution from stock, 100 μl final volume/well). […] After which, 50 μl stop solution (2M H2SO4) was added and optical density (OD) of each well was read at 450 nm with 570 nm blank subtracted from each well using a microplate reader. A 4 parameter logistic curve was constructed using GraphPad Prism 7 and A1AT concentrations were determined in each sample by interpolation from a standard curve and multiplying by the appropriate dilution factor.
# The amount of human A1AT secreted from transfected HEK-EBNA cells into the media was measured by ELISA. […]
# [2] = biological target: T2, CYP 1A2 (Homo sapiens, UniProt P05177); assay: CYP inhibition, E. coli CYPEX membranes; type: in vitro ADME; settings: specific probe substrates
# T2 construct: purchased CYPEX; host or cells: E. coli
# T2 sequence (P05177 1-516): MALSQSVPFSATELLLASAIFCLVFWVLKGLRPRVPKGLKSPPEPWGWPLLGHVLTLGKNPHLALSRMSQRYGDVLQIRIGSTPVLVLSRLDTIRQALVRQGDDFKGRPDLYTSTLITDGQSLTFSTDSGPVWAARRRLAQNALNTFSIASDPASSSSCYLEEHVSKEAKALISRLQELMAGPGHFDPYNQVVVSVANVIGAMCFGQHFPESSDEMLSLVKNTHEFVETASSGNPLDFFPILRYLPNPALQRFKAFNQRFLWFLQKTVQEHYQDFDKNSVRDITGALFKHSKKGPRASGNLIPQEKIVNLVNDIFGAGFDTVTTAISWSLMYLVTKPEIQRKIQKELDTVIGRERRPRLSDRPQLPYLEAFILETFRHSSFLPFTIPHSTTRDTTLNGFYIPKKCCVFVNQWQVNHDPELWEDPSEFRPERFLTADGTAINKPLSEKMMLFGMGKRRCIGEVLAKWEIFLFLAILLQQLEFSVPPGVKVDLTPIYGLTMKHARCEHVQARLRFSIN
# Description: (§2) Using E. coli CYPEX membranes in combination with specific probe substrates, the inhibition of individual CYPs by compounds of the invention using the method described in Weaver et al., 2003, Drug Metab Dispos 31:7, 955-966 was assessed.
# [3] = biological target: T3, CYP 2C19 (Homo sapiens, UniProt P33261); assay: CYP inhibition, E. coli CYPEX membranes; type: in vitro ADME; settings: specific probe substrates
# T3 construct: purchased CYPEX; host or cells: E. coli
# T3 sequence (P33261 whole entry): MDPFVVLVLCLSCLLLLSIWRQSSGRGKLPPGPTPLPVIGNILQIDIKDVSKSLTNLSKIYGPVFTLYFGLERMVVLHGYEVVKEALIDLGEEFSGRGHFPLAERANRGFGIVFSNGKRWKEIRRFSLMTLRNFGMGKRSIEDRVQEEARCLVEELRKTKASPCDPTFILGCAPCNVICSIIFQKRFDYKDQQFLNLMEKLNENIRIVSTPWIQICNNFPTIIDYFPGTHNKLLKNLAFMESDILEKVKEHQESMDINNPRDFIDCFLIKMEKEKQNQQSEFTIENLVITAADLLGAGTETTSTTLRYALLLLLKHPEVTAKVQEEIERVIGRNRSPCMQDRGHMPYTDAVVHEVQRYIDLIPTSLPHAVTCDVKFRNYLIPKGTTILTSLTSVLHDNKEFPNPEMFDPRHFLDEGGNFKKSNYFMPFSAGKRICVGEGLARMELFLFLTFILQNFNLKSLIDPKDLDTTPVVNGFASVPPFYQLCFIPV
# Description: as §2
# [4] = biological target: T4, CYP 2C9 (Homo sapiens, UniProt P11712); assay: CYP inhibition, E. coli CYPEX membranes; type: in vitro ADME; settings: specific probe substrates
# T4 construct: purchased CYPEX; host or cells: E. coli
# T4 sequence (P11712 whole entry): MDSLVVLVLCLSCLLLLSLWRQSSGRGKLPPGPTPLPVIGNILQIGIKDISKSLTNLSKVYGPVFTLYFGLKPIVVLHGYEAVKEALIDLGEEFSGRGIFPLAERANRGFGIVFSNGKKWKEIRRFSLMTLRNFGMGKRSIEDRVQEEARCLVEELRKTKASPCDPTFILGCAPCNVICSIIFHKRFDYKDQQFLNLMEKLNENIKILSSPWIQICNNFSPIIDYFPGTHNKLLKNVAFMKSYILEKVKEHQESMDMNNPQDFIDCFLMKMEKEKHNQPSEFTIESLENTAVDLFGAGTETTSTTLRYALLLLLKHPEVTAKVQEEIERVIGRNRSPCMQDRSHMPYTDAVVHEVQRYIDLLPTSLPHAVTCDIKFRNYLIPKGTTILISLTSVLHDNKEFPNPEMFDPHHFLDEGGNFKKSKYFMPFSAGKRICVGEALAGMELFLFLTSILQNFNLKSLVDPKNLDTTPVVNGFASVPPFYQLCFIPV
# Description: as §2
# [5] = biological target: T5, CYP 2D6 (Homo sapiens, UniProt P10635); assay: CYP inhibition, E. coli CYPEX membranes; type: in vitro ADME; settings: specific probe substrates
# T5 construct: purchased CYPEX; host or cells: E. coli
# T5 sequence (P10635 whole entry): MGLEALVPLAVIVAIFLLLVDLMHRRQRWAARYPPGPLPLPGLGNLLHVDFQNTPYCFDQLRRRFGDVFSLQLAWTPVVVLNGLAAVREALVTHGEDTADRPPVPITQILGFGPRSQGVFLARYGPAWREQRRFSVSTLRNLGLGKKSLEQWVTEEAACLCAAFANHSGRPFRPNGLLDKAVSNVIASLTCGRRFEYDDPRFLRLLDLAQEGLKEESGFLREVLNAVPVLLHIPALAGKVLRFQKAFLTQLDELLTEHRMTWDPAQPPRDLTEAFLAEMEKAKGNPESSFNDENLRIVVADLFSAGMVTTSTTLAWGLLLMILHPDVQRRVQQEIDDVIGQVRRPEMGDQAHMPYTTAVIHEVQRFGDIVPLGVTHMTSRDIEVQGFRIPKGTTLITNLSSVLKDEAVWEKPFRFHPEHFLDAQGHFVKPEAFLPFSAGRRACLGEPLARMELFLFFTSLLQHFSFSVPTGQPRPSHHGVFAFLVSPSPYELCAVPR
# Description: as §2
# [6] = biological target: T6, CYP 3A4 (Homo sapiens, UniProt P08684); assay: CYP inhibition, E. coli CYPEX membranes; type: in vitro ADME; settings: specific probe substrates
# T6 construct: purchased CYPEX; host or cells: E. coli
# T6 sequence (P08684 whole entry): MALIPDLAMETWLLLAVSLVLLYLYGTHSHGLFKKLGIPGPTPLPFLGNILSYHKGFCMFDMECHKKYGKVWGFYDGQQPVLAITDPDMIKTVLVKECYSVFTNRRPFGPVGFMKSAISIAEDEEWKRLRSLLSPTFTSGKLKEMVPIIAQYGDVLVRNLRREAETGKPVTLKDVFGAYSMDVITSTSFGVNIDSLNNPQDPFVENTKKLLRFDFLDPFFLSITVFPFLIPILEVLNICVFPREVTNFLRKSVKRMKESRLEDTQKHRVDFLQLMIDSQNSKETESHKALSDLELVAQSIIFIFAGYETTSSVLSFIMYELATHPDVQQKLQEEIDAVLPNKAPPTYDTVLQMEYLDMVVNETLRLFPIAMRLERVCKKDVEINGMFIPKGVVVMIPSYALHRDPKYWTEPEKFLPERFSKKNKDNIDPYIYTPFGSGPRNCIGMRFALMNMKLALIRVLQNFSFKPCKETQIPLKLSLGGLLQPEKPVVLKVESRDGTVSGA
# Description: as §2
# [7] = Aqueous solubility; type: physicochemical; settings: thermodynamic from solid; water, shaken for 5 minutes until clear solution
# Description: Compounds of the invention were shaken for 5 minutes with increasing amounts of water until a clear solution had formed. Using this method the solubility of N,N-dimethyl-4-((6-oxopyrimidin-1(6H)-yl)methyl)benzamide was greater than 100 mg/ml.
# [8] = biological target: human Z A1AT (Homo sapiens, UniProt P01009, E366K); assay: A1AT cell secretion assay using HEK-Z cells (ELISA); type: cell-based; set-up: expressed in transfected cells; host or cells: HEK-Z (HEK-EBNA cells containing the Z A1AT plasmid); settings: HEK-Z cells, 10, 33, 100 and 333 nM, 48 h, cell supernatant
# Chain of human Z A1AT (P01009 25-418 E366K): as the sequence (P01009 25-418 S77F) above, with F53S, E342K counted along it
# Description: HEK-Z cells, a human embryonic kidney cell line stably transfected with the human Z A1AT gene, were plated into 96 well plates (3.0×10^5 cells/ml with 200 μl of media/well) overnight at 37° C. in a humidified atmosphere containing 5% CO2. Following incubation cells were washed with 200 μl serum-free media three times and media was replaced with treatments in quadruplicate using serum-free media containing either vehicle, 10 μM suberanilohydroxamic acid (SAHA), N,N-dimethyl-4-((6-oxopyrimidin-1(6H)-yl)methyl)benzamide (at concentrations of 10, 33, 100 and 333 nM), N,N-(bis-methyl-d3)-4-((6-oxopyrimidin-1(6H)-yl)methyl)benzamide (at concentrations of 10, 33, 100 and 333 nM) or N-methyl-4-((6-oxopyrimidin-1(6H)-yl)methyl)benzamide (at concentrations of 10, 33, 100 and 333 nM) for 48 h in a 37° C. incubator in a final volume of 200 μl. At the end of the incubation step the supernatants were removed from the wells, centrifuged at 1000×g at 4° C. for 10 min and were assayed for human A1AT levels by ELISA (Human Serpin A1/α1-antitrypsin duo set ELISA, R& D Systems, DY1268) per manufacturer's instructions.
# as §1, with “volume/well). The capture antibody was then removed and wells washed three times with 300 μl wash buffer (0.05% Tween 20 in PBS) and then 200 μl reagent diluent ([…]) was incubated in each well for 1 h at room temperature.” for “volume/well).”
# The amount of A1AT secreted from transfected HEK-EBNA cells into the media was measured by ELISA. […]
structure (smiles),measurement,setting,value
"CN(C)C(=O)c1ccc(Cn2cnccc2=O)cc1 [N,N-dimethyl-4-((6-oxopyrimidin-1(6H)-yl)methyl)benzamide]",secretion of Siiyama A1AT as measured by ELISA,[1],does not stimulate secretion of Siiyama A1AT
same,IC50,[2],> 50 µM
same,IC50,[3],> 50 µM
same,IC50,[4],> 50 µM
same,IC50,[5],> 50 µM
same,IC50,[6],> 50 µM
same,solubility at 5 min,[7],> 100 mg/mL
same,secretion of Z A1AT as measured by ELISA,[8],stimulates secretion of Z A1AT in a dose dependent manner
